{"source": "patent US20160310578A1", "about": "“METHOD OF ACCELERATING OSTEOGENESIS” (Fuji Nihon Seito Corporation, priority 2015, published 2016)", "key": {"[1]": {"tested_on": "osteoblastic cell line MC3T3-E1", "test": "Effect of DFA III on the number of osteoblastic cells (MTS, absorbance 490 nm) (Example 3)", "assay_type": "cell-based, mouse", "settings": "for light absorbance at 490 nm (relative number of the cells): MC3T3-E1", "description": "The effect of DFA III on osteoblasts was examined using the osteoblastic cell line MC3T3-E1 isolated from […].\nFirst, 3×10^5 cells of MC3T3-E1 were inoculated in 96 wells containing 90 μL of α-MEM medium containing penicillin (manufactured by Sigma) and streptomycin (manufactured by Sigma) (200 μg/mL). DFA III was added to the culture solution so as to result in concentrations of 10 mM, 50 mM, and 100 mM, and the cells were cultured at 37° C. at a CO2 concentration of 5%. Culturing was performed for five wells each for each of the concentrations, and the number of the cells was counted on day 1, day 4, day 7, and day 14 after culturing.\nWhen counting the number of the cells, the cells were treated with 10 mM trypsin for 30 minutes under the same conditions as the cell culture, and then separated from the well. The cells were then added to 100 μL of MTS solution (manufactured by Promega Corp.), and incubated for 30 minutes under the same conditions as the cell culture, and a light absorbance at the wavelength of 490 nm was measured using a plate reader (“iMark Plate Reader” manufactured by Bio-Rad Laboratories, Inc.). The measured light absorbance represents the relative number of the cells.\nThe average value of the three from the five wells cultured under the same conditions was taken as the measured value. As a control, the wells were used, where the medium of the wells to which DFA III was not added."}, "[2]": {"tested_on": "ovariectomized animals (OVX)", "test": "Bone tissue analysis by 3D CTR of the femoral articular head in OVX rats (Example 4)", "assay_type": "in vivo, Wistar rats", "description": "Animal experiments were conducted using ovariectomized animals (OVX). The animals used were 48 female Wistar rats with body weight of approximately 350 g. They were used in the experiments after being preliminarily reared on standard feed (CE-2 manufactured by CLEA Japan, Inc.) for one week after undergoing ovariectomy. All experiments were approved by the Animal Experiment Ethics Committee of CLEA Japan, Inc. and were conducted according to the policies thereof. The standard feed CE-2 manufactured by CLEA Japan, Inc. contains 1.06 g of calcium per 100 g of the feed as calcium carbonate and calcium iodate (according to 2009 periodic analysis average values listed on the website of CLEA Japan, Inc.). After preliminary feeding, 12 OVX rats were divided into groups of three rats each. Group A was reared on feed obtained by adding 3% collagen and 5% DFA III to the standard feed; Group B was reared on feed obtained by only adding the same amount of DFA III; Group C was reared on feed obtained by only adding the same amount of collagen; Group D was reared on the standard feed only. One week, two weeks, three weeks, and one month after the start of feeding, phenobarbital in a dose of 0.5 mg per 10 g of body weight was administered intraperitoneally to anesthetize the rats. Perfusion fixation was performed by injecting 4% paraformaldehyde solution diluted with cacodylate buffer of pH 7.4 and perfusing for 5 minutes from the left ventricle. After fixation, the articular head of the femur and the tibia of the lower limbs were extracted. 3D CTR images of the articular head were taken using a 3D Micro X-ray CTR-mCT2 for experimental animals (manufactured by Rigaku Corp.). From the 3D CTR images that were taken, five images of cross-sections in the same direction were selected, and the bone area and bone marrow area in each individual was measured and the average taken (Table 5 and FIG. 5)."}, "[3]": {"tested_on": "OVX rats with osseous defect in the epiphyseal area of the tibia", "test": "Recovery promoting effect in osseous defect of the tibia in OVX rats, 3D CTR (Example 5)", "assay_type": "in vivo, Wistar rats", "settings": "one month", "description": "Animal experiments were conducted using ovariectomized animals (OVX). The animals used were 48 female Wistar rats with body weight of approximately 350 g. They were used in the experiments after being preliminarily reared on standard feed (CE-2 manufactured by CLEA Japan, Inc.) for one week after undergoing ovariectomy. All experiments were approved by the Animal Experiment Ethics Committee of CLEA Japan, Inc. and were conducted according to the policies thereof. The standard feed CE-2 manufactured by CLEA Japan, Inc. contains 1.06 g of calcium per 100 g of the feed as calcium carbonate and calcium iodate (according to 2009 periodic analysis average values listed on the website of CLEA Japan, Inc.).\nUsing 12 OVX rats after preliminary feeding, phenobarbital in a dose of 0.5 mg per 10 g of body weight was administered intraperitoneally to anesthetize the rats. An incision was made in the skin on the upper portion of the knee joint, and then the knee joint was exposed, and a hole approximately 0.5 mm in diameter was made using a dental round bur in the epiphyseal area of the tibia, and then the incision was sutured.\nAfter the surgery, the rats were divided into four groups of three rats each. Group A was reared on feed obtained by adding 3% collagen and 5% DFA III to the standard feed; Group B was reared on feed obtained by only adding the same amount of DFA III; Group C was reared on feed obtained by only adding the same amount of collagen; Group D was reared on the standard feed only.\nAfter one month of feeding, the same anesthesia was performed, and perfusion fixation was performed with 4% paraformaldehyde from the left ventricle in the same manner as the femur experiment. After fixation, the region where the surgery was performed was extracted, and after washing with 0.8 M cacodylate buffer adjusted to pH 7.4, 3D CTR images were taken using the CTR apparatus mentioned above (FIG. 6).\nThe bone area and the bone marrow area were measured using five images of the osseous defect in the same manner as in Example 4 (Table 6)."}, "[4]": {"settings": "3% collagen and/or 5% DFA III in standard feed, one month, articular head of femur"}, "[5]": {"settings": "3% collagen and/or 5% DFA III in standard feed"}}}
{"smiles": "OC[C@H]1O[C@@]2(CO[C@]3(CO)O[C@H](CO)[C@@H](O)[C@@H]3O2)[C@@H](O)[C@@H]1O", "note": "[DFA III, Difructose anhydride III]", "values": [{"measurement": "light absorbance at 490 nm (relative number of the cells)", "setting": "[1]; 10 mM DFA III, 1 Day after culture", "result": 0.309}, {"measurement": "light absorbance at 490 nm (relative number of the cells)", "setting": "[1]; 10 mM DFA III, 4 Day after culture", "result": 0.323}, {"measurement": "light absorbance at 490 nm (relative number of the cells)", "setting": "[1]; 10 mM DFA III, 7 Day after culture", "result": 0.388}, {"measurement": "light absorbance at 490 nm (relative number of the cells)", "setting": "[1]; 10 mM DFA III, 14 Day after culture", "result": 0.736}, {"measurement": "light absorbance at 490 nm (relative number of the cells)", "setting": "[1]; 50 mM DFA III, 1 Day after culture", "result": 0.305}, {"measurement": "light absorbance at 490 nm (relative number of the cells)", "setting": "[1]; 50 mM DFA III, 4 Day after culture", "result": 0.380}, {"measurement": "light absorbance at 490 nm (relative number of the cells)", "setting": "[1]; 50 mM DFA III, 7 Day after culture", "result": 0.430}, {"measurement": "light absorbance at 490 nm (relative number of the cells)", "setting": "[1]; 50 mM DFA III, 14 Day after culture", "result": 0.849}, {"measurement": "light absorbance at 490 nm (relative number of the cells)", "setting": "[1]; 100 mM DFA III, 1 Day after culture", "result": 0.321}, {"measurement": "light absorbance at 490 nm (relative number of the cells)", "setting": "[1]; 100 mM DFA III, 4 Day after culture", "result": 0.390}, {"measurement": "light absorbance at 490 nm (relative number of the cells)", "setting": "[1]; 100 mM DFA III, 7 Day after culture", "result": 0.438}, {"measurement": "light absorbance at 490 nm (relative number of the cells)", "setting": "[1]; 100 mM DFA III, 14 Day after culture", "result": 0.988}, {"measurement": "effect on cell division of osteoblasts", "setting": "[1]; MC3T3-E1, conclusion from Table 4", "result": "stimulates cell division of osteoblasts"}, {"measurement": "cell number values versus control group", "setting": "[1]; day 1, day 4 and day 7 after culturing", "result": "control group exhibited higher values"}, {"measurement": "cell number values versus control group", "setting": "[1]; day 14 after culturing, 10, 50 and 100 mM", "result": "higher values than the control group"}, {"measurement": "Proportion of bone in articular head (%)", "setting": "[2]; 3% collagen and/or 5% DFA III in standard feed, one month", "result": 56.1, "unit": "%"}, {"measurement": "Bone area (average)", "setting": "[2]; [4]", "result": 320.0, "unit": "μm^2"}, {"measurement": "Bone marrow area (average)", "setting": "[2]; [4]", "result": 250.9, "unit": "μm^2"}, {"measurement": "Total area", "setting": "[2]; [4]", "result": 570.9, "unit": "μm^2"}, {"measurement": "CTR images: compact bone and cancellous bone, comparison of the groups", "setting": "[2]; one month, FIG. 4", "result": "No marked difference"}, {"measurement": "increase of the proportion of bone in the articular head versus control Group D", "setting": "[2]; one month, compared with standard feed only", "result": 10.2, "unit": "%"}, {"measurement": "more bone tissue than the group fed standard feed alone", "setting": "[2]; summary of Example 4", "result": "approximately 10%"}, {"measurement": "Bone area", "setting": "[3]; [5]", "result": 90.7, "unit": "μm^2"}, {"measurement": "Bone marrow area", "setting": "[3]; [5]", "result": 704.8, "unit": "μm^2"}, {"measurement": "Total area", "setting": "[3]; [5]", "result": 795.5, "unit": "μm^2"}, {"measurement": "Proportion of bone in all bone (%)", "setting": "[3]", "result": 11.4, "unit": "%"}, {"measurement": "proportion of new bone formation greater than control Group D", "setting": "[3]", "result": 4.6, "unit": "%"}]}
